Measurements: patent publication US20110257145A1, “METHOD OF TREATING NEUROLOGICAL DISEASES” (THE BOARD OF TRUSTEES OF THE UNIVERSITY OF ILLINOIS, priority 2008, published 2011)
Where two headings read alike, the source gives them in different places. Each block holds one compound with its values, some of them ahead of it.

Legend:
[1] = tested on: APP-[V717I] transgenic mice; conditions: in vivo; cited from earlier work
AD cells [2] = conditions: cited from earlier work
AD cells [3] = conditions: cited from earlier work; remark: listed apart in the source
primary cortical neurons [4] = assay: HCA oxidative stress neuroprotection, cortical neurons (MTT); assay type: cell-based, rat; conditions: up to 20 μM, presence of HCA, 48 hours
Description: (§1) Primary neurons and cell culture: Cell cultures were obtained from the cerebral cortex of fetal Sprague-Dawley rats (embryonic day 17), as described previously. All experiments were initiated 24 hours after plating. Under these conditions, the cells are not susceptible to glutamate-mediated excitotoxicity.
Oxidative toxicity and neuron viability assays: For cytotoxicity studies, cells were rinsed with warm phosphate-buffered saline (PBS), then placed in minimum essential medium (Invitrogen, Carlsbad, Calif.) containing glucose (5.5 g L^−1), 10% fetal calf serum, L-glutamine (2 mM), and cysteine (100 μM). Oxidative stress was induced by the addition of the glutamate analogue HCA ([…]) to the media. HCA was diluted from 100-fold concentrated solutions that were adjusted to pH 7.5. In combination with HCA, TSA, SAHA, or the novel PKC-HDAC compounds were added at various concentrations. Viability was assessed after 48 hours by calceinacetoxymethyl ester (AM)/ethidium homodimer-1 staining (live/dead assay; Molecular Probes, Eugene, Oreg., USA) under fluorescence microscopy and the MTT assay method. Each bar represents the mean ±SEM of four replicates.
In this model of neurodegeneration, oxidative stress is induced by the presence of the glutamate analogue homocysteate (HCA) at a concentration of 5 mM, which depletes the cellular antioxidant glutathione through competitive inhibition of cysteine uptake at the level of the plasma membrane cysteine/glutamate antiporter system xc-. […]
(§2) In one embodiment, the present invention relates to a method of treating an individual suffering from a disease or condition wherein activation of PKC and inhibition of HDAC provides a benefit comprising administering a therapeutically effective amount of a compound of structural formula (I) to an individual in need thereof. […] Neuron survival was quantified by MTT assay, a colorimetric assay in which the amount of yellow MTT is reduced to purple formazan by active mitochondrial reductase enzymes in viable cells.

[5] = tested on: acetylated histone H4 in primary cortical neurons; assay: Western blot of histone H4 acetylation; assay type: cell-based, rat
Description: as §1
Histone precipitation and Western blot analysis: Treated neurons (about 1×10^6) were incubated in hypotonic lysis buffer (1 mL) containing Tris-HCl (pH 8.0, 10 mM), KCl (1 mM), MgCl2 (1.5 mm), DTT (1 mM), aprotinin (1 mM), pepstatin (1 mM), and PMSF (0.4 mM) for 30 minutes, rotating at 4° C. Nuclei were pelleted by centrifugation for 10 minutes at 10,000 rpm (9000 g), resuspended in H2SO4 (0.4N, 200 μL), and rotated for 12 hours at 4° C. Following centrifugation at 13,000 rpm (16,000 g value) for 10 minutes, the supernatant was transferred to anew tube, and the histone proteins were precipitated by adding 100% trichloroacetic acid (TCA: 66 μL) dropwise followed by 30 minutes incubation on ice. Histone proteins were pelleted by centrifugation at 13,000 rpm (16,000 g) for 10 minutes, washed twice with ice-cold acetone, dried at room temperature for 20-40 minutes, and resuspended in H2O ([…]). Total histone proteins (20 μL) were boiled in Laemmli buffer and electrophoresed under reducing conditions on 15% polyacrylamide gel. Histone proteins were transferred to a nitrocellulose membrane (Bio-Rad, Hercules, Calif.). Nonspecific binding was inhibited by incubation in Tris-buffered saline with Tween 20 (TBST: 50 mM Tris-HCl pH 8.0, 0.9% NaCl, and 0.1% Tween 20) containing 5% nonfat dried milk for at least 1.5 hours. Primary antibodies against acetylated histone H4 or total histone H4 (Upstate) were diluted 1:1000 or 1:4000, respectively, in TBST containing 5% milk and incubated with the membrane for 3 hours at room temperature, followed by incubation with anti-rabbit horseradish peroxidase-conjugated secondary antibodies for 2 h at room temperature. Acetyl histone H4 and total histone H4 immunoreactivity was detected according to the enhanced chemiluminescent protocol (Amersham Biosciences, Fairfield, Conn.).
To illustrate the HDAC-inhibitory activity of the present benzolactams, an ability of the compounds to alter histone acetylation levels was examined. FIG. 3 contains Western blot analyses showing the effect of percent benzolactam compounds at 10 μM (FIG. 3A) and 20 μM (FIG. 3B) in the acetylation levels of histone H4. Cultures of primary cortical neurons were treated with the various benzolactam compounds (at 10 μM) for a period of 8 hours, and Western blot analysis then was performed using acetyl-histone H4-specific antibodies (FIG. 3A).

mouse PKCα = mouse PKCα (Mus musculus, UniProt P20444); assay: PKC binding affinity
Description: ClogP and topological polar surface area (tPSA) values were calculated (Table 1). ClogP values for the tested compounds ranged from 0.92 to 4.67. The tPSA values were in the range of 61.80-90.90. […] The binding affinities of the compounds for mouse PKCα were determined as described previously. The Ki values for each of the compounds 2, 3, 6, 7, and 9-14, and known […] bryostatin 1 and SAHA are listed in Table 1.

[6] = tested on: HEK293 cells stably transfected with human APP; assay: Aβ40 ELISA; assay type: cell-based; conditions: 24 h
Description: (§3) sAPPα and Aβ40 detection: […] cell lines stably transfected with human APP were maintained in Dulbecco's modified Eagle's medium (DMEM) with 10% fetal bovine serum (FBS). Cells were seeded onto 6-well plates, and incubated at 37° C. overnight. Compounds 9-14 were first dissolved in dimethyl sulfoxide (DMSO) as a 10 mM stock and diluted into the respective concentrations with fresh DMEM with 10% FBS. After exposure overnight, the cell medium was replaced by fresh medium containing the PKC agonist. After incubation for 48 hours, the medium was collected, and both the soluble APP (sAPPα) and Aβ40 levels in the medium were determined by using the sAPPα and Aβ40 ELISA kits obtained from Biosource, Camarillo, Calif. according to the manufacturer's instructions.
It is theorized, but not relied upon, that if APP synthesis is held relatively constant, the production of Aβ decreases if more of the APP is processed through the α-secretase pathway. To confirm that treatment with a present benzolactam enhances the α-secretase APP-processing pathway, compounds 9-14 were examined to determine whether the increased levels of sAPPα corresponds to a decrease in the production of Aβ40. The cells were treated for 24 h at concentrations ranging from 0.001 to 10 μM, and Aβ40 levels were measured by Aβ40 ELISA. […] In FIG. 2, the data are presented as in FIG. 1, with “*” and “**” having the same meaning. […] In general, there was good agreement between an ability of a present benzolactam to increase sAPPα and its ability to decrease Aβ40.

[7] = tested on: HEK293 cells stably transfected with human APP; assay: sAPPα ELISA; assay type: cell-based
Description: as §3
In FIG. 1, the data are presented as percent of control±SEM.

primary cortical neurons [8] = assay: neuron viability in the absence of HCA (MTT); assay type: cell-based, rat; conditions: concentration not given
Description: as §1
Oxidative toxicity and neuron viability assays: For cytotoxicity studies, cells were rinsed with warm phosphate-buffered saline (PBS), then placed in minimum essential medium (Invitrogen, Carlsbad, Calif.) containing glucose (5.5 g L^−1), 10% fetal calf serum, L-glutamine (2 mM), and cysteine (100 μM). […] Viability was assessed after 48 hours by calceinacetoxymethyl ester (AM)/ethidium homodimer-1 staining (live/dead assay; Molecular Probes, Eugene, Oreg., USA) under fluorescence microscopy and the MTT assay method. […]
as §2

[9] = concentration not given in the sentence (FIG. 3: 10 and 20 μM)
[10] = mouse PKCα, read-out: K1[nm] ± SEM

SMILES: CCCCCCCCC#Cc1ccc2c(c1)CC(CO)NC(=O)C(C(C)C)N2C (centres unmarked) [BL, 8-(1-decynyl)benzolactam]
Aβ40 in the brains [1]: decrease
amount of sAPPα in the brains [1]: significantly increase
K+ channel defects (AD cells [2]): reverses
secretion of sAPPα (AD cells [3]): enhances the secretion of sAPPα

SMILES: CC(C)[C@H]1C(=O)N[C@H](CO)Cc2ccc(OCCNC(=O)CCCCC3CCSS3)cc2N1C (stereo partly drawn) [Compound 6, 1N-{2-[5-Hydroxymethyl-2-isopropyl-1-methyl-3-oxo-(2S,5S)-1,2,3,4,5,6-hexahydrobenzo[e][1,4]diazocin-9-yloxy]ethyl}-5-(1,2-dithiolan-3-yl)pentanamide]
neuroprotection (primary cortical neurons [4]): no neuroprotection
histone H4 acetylation [5, 9]: failed to induce histone H4 acetylation
Ki (mouse PKCα; [10]): 148 ± 18 nM

SMILES: CC(=O)SCCCCOc1ccc2c(c1)N(C)C(C(C)C)C(=O)NC(CO)C2 (stereo not drawn) [Compound 10, Thioacetic acid S-[4-(5-hydroxymethyl-2-isopropyl-1-methyl-3-oxo-1,2,3,4,5,6-hexahydrobenzo[e][1,4]diazocin-9-yloxy)butyl] ester]
Aβ40 levels ([6]; 10 μM): significant decrease in Aβ40 levels
histone H4 acetylation ([5]; 10 μM, 8 hours): less effective at inducing histone H4 acetylation
histone H4 acetylation ([5]; 20 μM): modest acetylation was observed
sAPPα levels ([7]; 1 nM): statistically significant elevation in sAPPα

SMILES: CC(=O)SCCCCCCCCOc1ccc2c(c1)N(C)C(C(C)C)C(=O)NC(CO)C2 (stereo not drawn) [Compound 14, Thioacetic acid S-[8-(5-hydroxymethyl-2-isopropyl-1-methyl-3-oxo-1,2,3,4,5,6-hexahydrobenzole[e][1,4]diazocin-9-yloxy)octyl] ester]
Aβ40 levels ([6]; 1-10 μM): significant decrease in Aβ40 levels
sAPPα levels ([7]; 1-10 μm): increase in sAPPα levels

Ki (mouse PKCα; [10]): 8.7 ± 0.7 nM
SMILES: CC(=O)SCCCCCCOc1ccc2c(c1)N(C)C(C(C)C)C(=O)NC(CO)C2 (stereo not drawn) [Compound 12, Thioacetic acid S-[6-(5-hydroxymethyl-2-isopropyl-1-methyl-3-oxo-1,2,3,4,5,6-hexahydrobenzo[e][1,4]diazocin-9-yloxy)hexyl] ester]
Aβ40 levels ([6]; 10 μM): significant decrease in Aβ40 levels
sAPPα levels ([7]; 1-10 μm): increase in sAPPα levels

SMILES: CC(C)[C@H]1C(=O)N[C@H](CO)Cc2ccc(O)cc2N1C [Compound 2, 9-Hydroxy-5-hydroxymethyl-2-isopropyl-1-methyl-(2S,5S)-1,4,5,6-tetrahydro-2H-benzo[e][1,4]diazocin-3-one]
Ki (mouse PKCα): 4840 ± 320 nM

SMILES: CC(=O)SCCCOc1ccc2c(c1)N(C)C(C(C)C)C(=O)NC(CO)C2 (stereo not drawn) [Compound 9, Thioacetic acid S-[3-(5-hydroxymethyl-2-isopropyl-1-methyl-3-oxo-1,2,3,4,5,6-hexahydrobenzole[e][1,4]diazocin-9-yloxy)propyl]ester]
Aβ40 levels ([6]; 10 μM): significant decrease in Aβ40 levels
histone H4 acetylation ([5]; 10 μM, 8 hours): less effective at inducing histone H4 acetylation
histone H4 acetylation ([5]; 20 μM): modest acetylation was observed
sAPPα levels ([7]; 10 μm): increase in sAPPα levels

SMILES: CC(C)[C@H]1C(=O)N[C@H](CO)Cc2ccc(OC(=O)CCCCC3CCSS3)cc2N1C (stereo partly drawn) [Compound 7, (2S,5S)-1,2,3,4,5,6-Hexahydro-5-(hydroxymethyl)-2-isopropyl-1-methyl-3-oxobenzo[e][1,4]diazocin-9-yl-5-(1,2-dithiolan-3-yl)pentanoate]
neuroprotection (primary cortical neurons [4]): no neuroprotection
histone H4 acetylation [5, 9]: failed to induce histone H4 acetylation
Ki (mouse PKCα; [10]): 5.7 ± 1 nM

SMILES: CC(/C=C/C(=O)NO)=C\[C@@H](C)C(=O)c1ccc(N(C)C)cc1 [TSA, trichostatin A]
toxicity in neuron viability measurements (primary cortical neurons [8]): considerable dose dependent toxicity

SMILES: CC(=O)SCCCCCCCOc1ccc2c(c1)N(C)C(C(C)C)C(=O)NC(CO)C2 (stereo not drawn) [Compound 13, Thioacetic acid S-[7-(5-hydroxymethyl-2-isopropyl-1-methyl-3-oxo-1,2,3,4,5,6-hexahydrobenzo[e][1,4]diazocin-9-yloxy)heptyl] ester]
Aβ40 levels ([6]; 1-10 μM): significant decrease in Aβ40 levels
Ki (mouse PKCα): 4.5 ± 0.4 nM
sAPPα levels ([7]; 10 μm): increase in sAPPα levels

SMILES: CC(=O)SCCCCCOc1ccc2c(c1)N(C)C(C(C)C)C(=O)NC(CO)C2 (stereo not drawn) [Compound 11, Thioacetic acid S-[5-(5-hydroxymethyl-2-isopropyl-1-methyl-3-oxo-1,2,3,4,5,6-hexahydrobenzo[e][1,4]diazocin-9-yloxy)pentyl] ester]
Aβ40 levels ([6]; 10 μM): significant decrease in Aβ40 levels
sAPPα levels ([7]; 10 μm): increase in sAPPα levels

SMILES: C=CCCCCCOc1ccc2c(c1)N(C)C(C(C)C)C(=O)NC(CO)C2 (centres unmarked) [Compound 3, 9-Hept-6-enyloxy-5-hydroxymethyl-2-isopropyl-1-methyl-1,4,5,6-tetrahydro-2H-benzo[e][1,4]diazocin-3-one]
neuroprotection (primary cortical neurons [4]): no neuroprotection
histone H4 acetylation ([5]; 20 μM): did not increase histone H4 acetylation
